{"source": "patent US10597649B2", "about": "“Tau protease compositions and methods of use” (Oligomerix, Inc., priority 2011, dated 2020)", "key": {"Tau 4R2N oligomer ladder": {"target": "T1, Tau 4R2N oligomer ladder (Homo sapiens, UniProt P10636)", "T1 construct": "Stabilization buffer enables production of full length monomer, dimer and trimer for tau protease; made in house; host or cells: E. coli BL21 (DE3) Gold", "T1 sequence (P10636 1-441 isoform P10636-8)": "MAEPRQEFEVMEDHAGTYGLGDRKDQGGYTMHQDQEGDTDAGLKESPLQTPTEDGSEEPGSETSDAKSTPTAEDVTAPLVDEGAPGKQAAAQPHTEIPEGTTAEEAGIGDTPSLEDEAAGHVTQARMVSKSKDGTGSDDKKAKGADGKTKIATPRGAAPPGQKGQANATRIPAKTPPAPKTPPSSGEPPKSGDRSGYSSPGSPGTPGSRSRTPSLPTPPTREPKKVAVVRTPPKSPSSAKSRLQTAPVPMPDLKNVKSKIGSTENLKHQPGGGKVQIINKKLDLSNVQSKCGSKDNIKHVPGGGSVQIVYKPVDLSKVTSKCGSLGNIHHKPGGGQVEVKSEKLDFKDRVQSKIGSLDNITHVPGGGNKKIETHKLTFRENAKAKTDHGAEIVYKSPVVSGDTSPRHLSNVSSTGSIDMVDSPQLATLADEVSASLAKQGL", "assay": "FP-TAMRA serine hydrolase probe labeling of oligomerized tau 4R2N", "type": "biochemical", "conditions": "pre-treated with 0, 0.1, 1.0 or 10.0 mM AEBSF for 1 hr; 5 micromolar FP-TAMRA, 4 hrs", "text": "Tau 4R2N oligomer ladder was labeled with fluorophosphonate (FP) linked to a fluorescent TAMRA tag (ThermoFisher Scientific), a probe that is specific for active site serines in serine proteases. FP probes specifically label the serines of enzymatically-active serine hydrolases. The serine protease-specific inhibitor, AEBSF, was used in a dose-response study to determine whether tau was being specifically labeled with FP. […] Samples were run without reductant or with reductant as indicated. For labeling, 10 μg of tau 4R2N was labeled with 5 micromolar FP-TAMRA in 10 μL buffer (25 mM Tris-HCl pH 7.4, 150 mM NaCl, 0.5 mM EDTA, 0.1% NP-40, 5% glycerol) for 4 hrs at room temperature in the dark. Samples were pre-treated with 0, 0.1, 1.0, or 10.0 mM AEBSF for 1 hr at room temperature to block the active-site serine before the addition of the FP-TAMRA probe. Samples were divided in half and run with sample buffer with or without reductant as indicated;\n4-(2-Aminoethyl)benzenesulfonyl fluoride hydrochloride (AEBSF) was prepared fresh in anhydrous DMSO. (Sigma Chemical Co.) A8456-≥97%, Molecular Weight: 239.69; 9 mg AEBSF/187.2 μL DMSO=200 mM. Serine hydrolase FP probes were equilibrated to room temperature in pouch with desiccant. Serine hydrolase FP probe was dissolved in 100 μL of DMSO to make a 0.1 mM stock solution. Samples were aliquotted in 5-μL/tubes and store in −80° C. freezer. […]"}, "tau 4R2N trimer protease": {"target": "T2, tau 4R2N trimer protease (Homo sapiens, UniProt P10636)", "T2 construct": "Stabilization buffer enables production of full length monomer, dimer and trimer for tau protease; made in house; host or cells: E. coli BL21 (DE3) Gold", "T2 sequence (P10636 1-441 isoform P10636-8)": "as above", "assay": "Peptide assay (tau peptide 335-353, reverse-phase HPLC) used to screen serine protease inhibitors", "type": "biochemical", "set-up": "inhibition of cleavage of the peptide (FIG. 14D) / inhibition of cleavage of the peptide (FIG. 14F): dose or concentration left out as unconfirmed", "conditions": "1 hr at room temperature before peptide substrate", "text": "N-terminal sequencing of fragments using mass spectrometry identified autoproteolytic cut sites. In particular, cutting at the Lys340-Ser341 (340KS341) cut site occurred readily. Therefore, a 19-amino acid peptide corresponding to amino acids 335G to 353L of tau protein was synthesized that contained the KS cut site (340KS341). The reaction was monitored by reverse-phase high-pressure liquid chromatography (HPLC). […] An asterisk marks a non-specific contaminant that was used as a marker. […] 10 μg of tau peptide 335-353 ([…]) (SEQ ID NO:19) was custom synthesized by Genscript (Piscataway, N.J., USA) and 1 mg was dissolved in 1 mL of buffer (25 mM Tris-HCl pH 7.4). […] of peptide was incubated with 11 μg of tau trimer protease in 30 μL buffer 20 hr at 37° C. and analyzed by HPLC [SystemGold® 32Karat™ LC-CE System, Beckman Coulter, Inc., (Indianapolis, Ind.)] using a linear gradient of acetonitrile in 0.1% TFA 0-60% acetonitrile on an analytical C18 column (12.5 cm×2.1 mm, 5 μm, (Supelco, Bellefonte, Pa., USA). 30 μg of peptide was incubated without tau protease as a negative control and analyzed with the same method;\nThe peptide assay for tau 4R2N trimer activity described in FIG. 5 was used to screen a series of serine protease inhibitors. 1 mM AEBSF was incubated with tau 4R2N trimer for 1 hr at room temperature before addition of the peptide substrate. […] The asterisk indicates an artifactual peak unrelated to the peptide;"}, "tau 4R2N trimer [1]": {"target": "T3, tau 4R2N trimer (Homo sapiens, UniProt P10636)", "T3 construct": "Stabilization buffer enables production of full length monomer, dimer and trimer for tau protease; made in house; host or cells: E. coli BL21 (DE3) Gold", "T3 sequence (P10636 1-441 isoform P10636-8)": "as above", "assay": "Tau 4R2N trimer incubated overnight with protease inhibitors, fragmentation read by SDS-PAGE", "type": "biochemical", "conditions": "overnight at 37° C., inhibitors at low and high concentrations; chymostatin 10 and 100 μM", "experimental": "Tau 4R2N trimer was incubated overnight at 37° C. with and without serine-specific protease inhibitors (Sigma Aldrich, St. Louis, Mo.). The incubation volumes were 3.45 microliter at a final concentration of 0.145 mg/mL tau 4R2N trimer.\nTau 4R2N trimer was incubated overnight at 37° C. with and without serine-specific protease inhibitors at low and high concentrations.\nTau trimer protease was incubated with and without protease inhibitor cocktail overnight containing serine protease, amino-peptidase, cysteine protease and aspatic protease inhibitors.\nFor each sample, 0.45 μg of tau 4R2N trimer was incubated at 0.2 mg/mL overnight at 37° C. in the presence of various freshly prepared protease inhibitors. Non-incubated control was kept on ice overnight at 4° C. Next day, 2× sodium dodecyl sulfate sample buffer with reductant was added to each sample and loaded onto a 4-20% gradient Tris-HCl Criterion Gel (Bio-Rad).\nProtease inhibitors targeted include serine proteases, amino-peptidases, cysteine proteases, metallo-proteases, and aspartic proteases."}, "Tau 4R2N [2]": {"target": "T4, Tau 4R2N (Homo sapiens, UniProt P10636)", "T4 construct": "Stabilization buffer enables production of full length monomer, dimer and trimer for tau protease; made in house; host or cells: E. coli BL21 (DE3) Gold", "T4 sequence (P10636 1-441 isoform P10636-8)": "as above", "assay": "NEM treatment of tau 4R2N monomer, incubation at 37° C., non-reducing SDS-PAGE", "type": "biochemical", "conditions": "1 mM NEM for 2 hr", "description": "FIG. 2 illustrates the formation of disulfide mediated tau oligomers preceded truncation and higher order aggregate formation. Tau 4R2N oligomers were purified by continuous-elution electrophoresis and monomer was further purified by pooling and buffer exchanging using spin columns with a molecular weight cut-off of 7000 Da into 25 mM Tris-HCl pH 7.4. A small amount of the monomer was treated with freshly-prepared NEM at a final concentration of 1 mM for 2 hr at ambient temperature. For incubations, monomer treated and untreated with NEM was allowed to incubate at 37° C. over the weekend (approximately 50 hrs), followed by separation on 4-20% sodium dodecyl sulfate (SDS)-polyacrylamide gel electrophoresis (PAGE) (SDS-PAGE) Tris-HCl gel (Bio-Rad Catalogue #345-0033 Hercules, Calif., USA) without reductant. Tau 4R2N—Disulfide-mediated oligomer formation preceded truncation, and truncation preceded higher-order aggregation. Aggregate formation was time dependent."}, "Aβ": {"tested_on": "Aβ", "conditions": "clinical endpoint in Phase III; cited from earlier work"}, "tau 4R2N trimer [3]": {"target": "T3, tau 4R2N trimer", "assay": "SDS titration for tau protease stabilization buffer", "type": "biochemical", "description": "(§1) Purified recombinant human tau 4R2N was prepared as described in the flow chart. Monomer, dimer and trimer species were purified preparative electrophoresis from a tau 4R2N preparation that had formed oligomers. The electrophoresis buffer contained 0.1% SDS which inhibited the proteolytic activity. Fractions containing the tau species were buffer exchanged into 25 mM Tris-HCl pH 7.4 using and Amicon ultrafiltration device (Merck Millipore, Billerica, Mass.), which led to restoration of tau autoproteolytic activity. Protein concentrations of the preparations were determined using the BCA kit (ThemoFisher Scientific). Samples were run on a pre-cast 4-20% polyacrylamide Tris-HCl gel (BioRad, Hercules, Calif.) without using reductant in order to visualize the disulfide mediated oligomers. The gel was stained with GelCodeBlue Safe (ThermoFisher Scientific, Rockford, Ill.). Lane 1: 5.2 μg of tau 4R2N oligomer standard; Lane 2: 2 microliter of monomer fraction before buffer exchange; Lane 3: 0.5 μg monomer after buffer exchange; Lane 4: […] of dimer fraction before buffer exchange; Lane 5: 0.5 μg dimer after buffer exchange; Lane 6: 20 μL trimer fraction before buffer exchange; Lane 7: 0.5 μg trimer after buffer exchange.\nThis example describes the development and characterization of a stabilization buffer for preserving the activity of tau protease. […]"}, "Tau 4R2n 241-340 (TP-99)": {"target": "T5, Tau 4R2n 241-340 (TP-99) (Homo sapiens, UniProt P10636)", "T5 construct": "initiating methionine (N); made in house; host or cells: E. coli BL21 (DE3) Gold", "T5 sequence (P10636 with tags, fused parts or gaps)": "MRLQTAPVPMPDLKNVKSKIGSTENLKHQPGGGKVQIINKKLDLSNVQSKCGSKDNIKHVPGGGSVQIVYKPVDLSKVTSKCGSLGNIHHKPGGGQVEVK", "assay": "TP-99 peptide digest HPLC assay with added zinc chloride", "type": "biochemical", "conditions": "100 μM zinc chloride, 44 hr at 37° C.", "description": "As in FIG. 7, cleavage of the peptide substrate for tau protease Tau 4R2N (amino acids 335-353) was used to monitor activity using reverse-phase HPLC. […] The large peak in the lower trace indicates intact peptide which is greatly diminished in the upper trace and replaced with two smaller peaks F1 and F2 that represent fragments generated by TP-99. […] The asterisk indicates an artifact peak that is derived from the incubation tube. Ten microgram of Tau peptide 335-353 (OP-001) was incubated without TP-99, with 25 μL, TP-99 oligomer ladder, or with additional 100 μM zinc chloride, 44 hr at 37° C. in 30 μL buffer (25 mM Tris-HCl pH 7.4). Samples were analyzed by reverse phase HPLC (SystemGold® 32Karat™ LC-CE System, Beckman Coulter, Inc., (Indianapolis, Ind.)) using a linear gradient of acetonitrile in 0.1% TFA 0-60% acetonitrile on an analytical C18 column (12.5 cm×2.1 mm, 5 μm, (Supelco);"}, "Tau 4R2N [4]": {"target": "T4, Tau 4R2N", "assay": "Autoproteolytic activity of purified tau monomer, dimer and trimer (SDS-PAGE)", "type": "biochemical", "conditions": "for degradation in contamination control study (Example 3): 0.35 μg, overnight at 37° C., equal sample volumes from purification; for autoproteolytic activity (Example 1): after buffer exchange into 25 mM Tris-HCl pH 7.4, incubation at 37° C.", "description": "This example describes the identification of the autoproteolytic activity of tau oligomers.\nas §1\nTau 4R2N undergoes autoproteolytic cleavage (self-cleavage) when it forms disulfide-mediated oligomers upon incubation. Tau autoproteolyic activity co-purified with the dimer and trimer species. The amount of autoproteolytic activity was greatest with trimer which fragmented to the extent where no full size trimer remained after incubation. […] It was also shown that Tau autoproteolytic activity co-purified with dimer and trimer species. […] Full-length trimer digested completely into smaller fragments, and upon incubation, monomer formed an oligomeric ladder that produced a low level of autoproteolytic activity.\n(§2) Monomer, Dimer, and Trimer of Tau 441 were purified under non-reducing conditions using continuous-elution electrophoresis. Fractions of each oligomer sample were pooled and buffer exchanged into stabilization buffer using an Amicon spin concentrator with a molecular weight cut-off of 30,000 daltons. 0.35 μg of each sample was incubated overnight at 37° C. while non-incubated control was kept on ice at 4° C. Next day, 2×SDS sample buffer without reductant was added to each sample and loaded onto a 4-20% gradient Tris-HCl Criterion Gel (Bio-Rad, Hercules, Calif.).\nas §2, with “This example presents results from a contamination control study of tau protease. Monomer,” for “Monomer,”, “2× sodium dodecyl sulfate” for “2×SDS”\nLane 1—tau oligomer ladder standard; Lane 2—empty; Lane 3—purified monomer no incubation (fraction from purification plate); Lane 4—purified monomer without incubation; Lane 5—purified monomer with incubation; Lane 6—purified dimer without incubation; Lane 7—purified dimer with incubation; Lane 8—purified trimer without incubation; purified trimer with incubation overnight at 37° C. Lanes 3-9 were treated with sample buffer containing β-mercaptoethanol (BME)."}}, "data": [{"molecule": "Cl.NCCc1ccc(S(=O)(=O)F)cc1", "note": "[AEBSF, 4-(2-Aminoethyl)benzenesulfonyl fluoride hydrochloride]", "values": [{"measurement": "FP-TAMRA labeling of tau 4R2N", "setting": "Tau 4R2N oligomer ladder", "result": "inhibited in a dose-dependent manner"}, {"measurement": "inhibition of tau 4R2N trimer protease activity, peptide assay (FIG. 14A)", "setting": "tau 4R2N trimer protease; 1 mM AEBSF", "result": "inhibited"}]}, {"molecule": "CC(C)C[C@H](NC(=O)[C@@H](NC(=O)N[C@@H](Cc1ccccc1)C(=O)O)[C@@H]1CCN=C(N)N1)C(=O)N[C@H](C=O)Cc1ccccc1", "note": "[Chymostatin]", "values": [{"measurement": "inhibitory effect on tau 4R2N trimer, serine protease inhibitor panel (FIG. 12)", "setting": "tau 4R2N trimer [1]", "result": "greatest inhibitory effect"}, {"measurement": "inhibition of cleavage of the peptide (FIG. 14D)", "setting": "tau 4R2N trimer protease; chymostatin", "result": "strongly inhibited"}]}, {"molecule": "CCN1C(=O)C=CC1=O", "note": "[NEM, N-ethylmaleimide]", "values": [{"measurement": "disulfide-mediated oligomer formation", "setting": "Tau 4R2N [2]; then about 50 hrs at 37° C.", "result": "irreversibly inhibited"}, {"measurement": "autoproteolytic activity", "setting": "Tau 4R2N [2]; then incubation at 37° C.", "result": "loss of autoproteolytic activity"}, {"measurement": "higher order aggregate formation", "setting": "Tau 4R2N [2]; then incubation at 37° C.", "result": "inhibition of higher order aggregate formation"}]}, {"molecule": "C[C@@H](C(=O)O)c1ccc(-c2ccccc2)c(F)c1", "note": "[R-flurbiprofen]", "values": [{"measurement": "Status", "setting": "Aβ", "result": "Failed to meet"}]}, {"molecule": "CCCCCCCCCCCCOS(=O)(=O)[O-].[Na+]", "note": "[SDS, sodium dodecyl sulfate]", "values": [{"measurement": "minimal inhibitory concentration for the enzymatic activity", "setting": "tau 4R2N trimer [3]; 0.3 μg tau 4R2N trimer, overnight at 37° C., 50 mM TrisHCl pH 7.4", "result": 0.002, "unit": "%"}, {"measurement": "proteolytic activity in electrophoresis buffer", "setting": "tau 4R2N trimer [3]; 0.1% SDS", "result": "inhibited"}]}, {"molecule": "CC(C)[C@H](O)C(=O)N[C@@H](C)C(=O)N[C@@H]1C(=O)N(C)CCc2ccccc21", "note": "[Semagacestat]", "values": [{"measurement": "Status", "setting": "Aβ", "result": "Failed to meet"}]}, {"molecule": "NCCCS(=O)(=O)O", "note": "[Tramiprosate]", "values": [{"measurement": "Status", "setting": "Aβ", "result": "Failed to meet"}]}, {"molecule": "[Cl-].[Cl-].[Zn+2]", "note": "[zinc chloride]", "values": [{"measurement": "activity of TP-99 on tau peptide 335-353", "setting": "Tau 4R2n 241-340 (TP-99)", "result": "increased the activity"}]}, {"molecule": "gabexate mesylate", "values": [{"measurement": "inhibition of cleavage of the peptide (FIG. 14F)", "setting": "tau 4R2N trimer protease; gabexate mesylate", "result": "did not significantly inhibit"}]}, {"molecule": "tau 4R2N dimer: purified disulfide-mediated dimer species of recombinant human tau 4R2N", "values": [{"measurement": "degradation in contamination control study (Example 3)", "setting": "Tau 4R2N [4]", "result": "minimal cleavage"}, {"measurement": "autoproteolytic activity (Example 1)", "setting": "Tau 4R2N [4]", "result": "showed autoproteolytic activity"}]}, {"molecule": "tau 4R2N monomer: purified monomer species of recombinant human tau 4R2N", "values": [{"measurement": "degradation in contamination control study (Example 3)", "setting": "Tau 4R2N [4]", "result": "minimal cleavage"}, {"measurement": "autoproteolytic activity (Example 1)", "setting": "Tau 4R2N [4]", "result": "minor activity"}]}]}
